Measurements as given in patent US7459282B2, “Use of c-Jun or c-Jun activating agents such as UV or c-Jun N-terminal kinases (JNKs) for treating cancer” (Biotech Research Ventures Pte Limited, priority 2001, dated 2008).
Square brackets hold non-standard residues; d marks the D form. Peptide text beside a SMILES is read from it. Nle = CCCC[C@H](N)C(=O)O

Legend:
[1] = test system: p73; assay: Western blot of p73 in MCF-7-p73 cells after proteosome inhibitor; type: cell-based, human; conditions: proteosome inhibitor for 3 hours
Procedure: FIG. 4. c-Jun is required for UV-mediated p73 stabilization. (a) MCF-7 cells stably transfected with p73 and parental MCF-7 cells were treated with the proteosome inhibitor for 3 hours or UV irradiated (50 J/m^2) and cell extracts were analyzed 2 hours post-irradiation by Western blotting as described in FIG. 1. (b) c-Jun^−/− and c-Jun^−/−+c-Jun mouse embryonic fibroblasts were transfected with the indicated plasmids and were untreated or UVC irradiated (40 J/m^2) or gamma-irradiation (10Gy) 24 hours post-transfection. 24 hours after irradiation, cell extracts were prepared and analyzed for p73 protein levels by Western blotting.
To analyze if c-Jun provides the stabilization signal, the inventors generated MCF-7 breast carcinoma cells stably expressing p73 (MCF-7-p73 cells), which would thus provide a detectable level of basal p73 expression. The overexpressed p73 was expressed in these cells (FIG. 4a). […] However, when these cells were treated with UV irradiation, which is a potent inducer of c-Jun but not p73 (Jost C A. et al, p73 is a simian [correction of human] p53-related protein that can induce apoptosis, Nature, 1997, Sep. 11; 389(6647):191-4.), p73 expression was detected as early as 2 hours post-irradiation, in contrast to the parental MCF-7 cells (FIG. 4a).

[2] = test system: p73; assay: Western blot of endogenous p73 levels in fibroblasts after cisplatin; type: cell-based, mouse; parameters: levels of p73 protein: dose or concentration left out as unconfirmed
Procedure: FIG. 1. […] These extracts were analysed by Western blotting for the expression of p73 and phosphorylated c-Jun using specific antibodies.
FIG. 2. c-Jun is necessary for cisplatin-induced p73 expression and apoptosis. […] (b) Extracts from cells described in (a) were analyzed for endogenous p73 levels by Western blotting.
Although p73 is a structural and functional homologue of the p53 tumour suppressor protein, p73 is only activated by a subset of agents that activate p53. […] The inventors have thus investigated the molecular mechanism(s) by which p73 activity is regulated. […] The increase in p73 levels in cisplatin-treated cells correlates with the phosphorylation of the proto-oncogene product, c-Jun (FIG. 1). Phosphorylated c-Jun was not detected upon gamma-irradiation of cells (FIG. 1).

[3] = test system: p73; assay: Egfp reporter screen for p73 activation in H1299-p53RE cells; type: cell-based, human; conditions: p53-null H1299 reporter cells
From the text: The screen utilises a p53 null cell line, H1299, which is a human lung cancer cell line. In these cells, p53 is not active as the gene is deleted. The inventors have transfected a plasmid containing the p53/p73 binding DNA sequences (or responsive element) driving the enhanced green fluorescent protein gene (Egfp) as a reporter (FIG. 8). Generally, the reporter would be turned “on” when p53 or its homologues bind to the responsive element. […] However, when the cells are exposed to compounds that activate p73, which is normally present in a dormant state in these cells, then these cells would fluoresce and would be visible as green cells under the fluorescence microscope.
It is important to note that all the cells in the population expressed Egfp, implying that the cell-system generated is homogenous and results in a 100% response.

Row | SMILES | expression of p73 protein [1] | p73 protein induction ([2]; absence of c-Abl, cisplatin) | p73 protein induction ([2]; c-Jun-/- cells, cisplatin 25 μM, 24 hours) | p73 protein induction ([2]; jun-/-+c-Jun cells, cisplatin 25 μM, 24 hours) | levels of p73 protein ([2]; wild-type mouse embryonic fibroblasts, cisplatin (FIG. 1), 24 hours post-treatment) | response of the cell population (cells expressing Egfp) ([3]; cisplatin treated) | expression of Egfp (endogenous p73 activity) ([3]; flow cytometer)
1 | CCCC[C@@H](C=O)NC(=O)[C@H](CC(C)C)NC(=O)[C@H](CC(C)C)NC(C)=O [ALLN] (Ac-Leu-Leu-[Nle]-aldehyde) | did not result in the increased expression of p73 protein | – | – | – | – | – | –
2 | N.N.[Cl][Pt][Cl] [cisplatin] | – | severely compromised | abrogated the induction of p73 | induced significantly | increase in the levels of p73 protein | 100% | expression of Egfp in all the cells
